The values below come from paper PMC6285983, “Novel broad spectrum virucidal molecules against enveloped viruses” (PLoS ONE, 2018).

pEC50: −log10 of the molar value.

The nature of series [1]: Cell viability MTS assay on Vero cells. The following applies: African green monkey, CC50, Vero cells, MTS.
Series [2] deals with HSV-2. Briefly: HSV-2 plaquing efficiency assay, compound preincubated with virus 1 h at 37°C. It counts as cell-based. The following applies: Human alphaherpesvirus 2, HSV-2, Vero cells, 1 h pre-incubation virus/compound; for pEC50: plaques at 24 h, read-out: EC50 (95% C.I.); for EC90: read-out: EC90 (95% C.I.).
Series [3] in a line: in vitro. The following applies: African green monkey.
For series [4], the system named is HSV-2 acyclovir resistant strain. Briefly: microbe, parasite or virus in culture. Format: cell-based. The following applies: Human alphaherpesvirus 2.
Series [5] is described as follows: In vitro lipoperoxidation test (TBA assay, MDA). The following applies: 0.05% w/w added to liposomes, exposure to compound 9d.

For `O=C(O)c1ccc(-c2ccc(/C=C3\SC(=S)N(CCc4c[nH]c5ccccc45)C3=O)o2)cc1O` [Compound 9a, (Z)-4-(5-((3-(2-(1H-Indol-3-yl)ethyl)-4-oxo-2-thioxothiazolidin-5-ylidene)methyl)furan-2-yl)-2-hydroxybenzoic acid], the melting point (commonly the temperature of the solid-liquid transition) was 254 °C (dec.). This molecule also displayed a CC50 in series [1] of 291000 nM. Moreover, in series [2], the pEC50 – broadly, the negative decadic logarithm of the EC50, by convention in mol/L – was 6.20 and the concentration for an effect of 90% (EC90) (in general, the point of the concentration-response curve where the effect stands at 90%) was found to be 2050 nM.

In the case of `O=C(O)c1ccc(-c2ccc(/C=C3\SC(=S)N(CCc4ccc(Br)cc4)C3=O)o2)cc1O` [Compound 9b, (Z)-4-(5-((3-(4-bromophenethyl)-4-oxo-2-thio-oxothiazolidin-5-ylidene)methyl)furan-2-yl)-2-hydroxybenzoic acid], the melting point is 275 °C (dec.). Besides, the CC50 in series [1] was 13500 nM. Moreover, in series [2], the negative-log EC50 (pEC50) was 6.92 and the 90% effect concentration (EC90) came out at 404 nM.

For the molecule `COc1ccc(CCN2C(=O)/C(=C/c3ccc(-c4ccc(C(=O)O)c(O)c4)o3)SC2=S)cc1` [Compound 9c, (Z)-2-hydroxy-4-(5-((3-(4-methoxyphenethyl)-4-oxo-2-thioxothiazolidin-5-ylidene)methyl)furan-2-yl)benzoic acid], the melting point was 265 °C (dec.). This molecule also came in with a CC50 in series [1] of 9870 nM. In series [2], the negative logarithm of the EC50 (pEC50) is 7.22 and the concentration for an effect of 90% (EC90) came out at 145 nM.

`O=C1/C(=C/c2ccc(-c3cc(C(F)(F)F)ccc3Cl)o2)SC(=S)N1Cc1ccc(F)cc1` [Compound 9e, (Z)-5-((5-(2-chloro-5-(trifluoromethyl)phenyl)furan-2-yl)methylene)-3-(4-fluorobenzyl)-2-thioxothiazolidin-4-one]: the CC50 in series [1] is more than 300000 nM. Besides, in series [2], the pEC50 is 6.12 and the EC90 was determined as 5740 nM.

As for `O=C1NC(=S)N(Cc2ccccc2)C(=O)/C1=C\c1ccc(-c2ccc(C(=O)O)c(O)c2)o1` [Compound 15a, (Z)-4-(5-((1-benzyl-4,6-dioxo-2-thioxotetrahydropyrimidin-5(2H)-ylidene)methyl)furan-2-yl)-2-hydroxybenzoic acid], in series [3], the CC50 was more than 300000 nM. In series [2], the pEC50 is 5.99 and the EC90 worked out at 57000 nM.

As for `O=C1NC(=S)N(CCc2ccccc2)C(=O)/C1=C\c1ccc(-c2ccc(C(=O)O)c(O)c2)o1` [Compound 15b, (Z)-4-(5-((4,6-dioxo-1-phenethyl-2-thioxotetrahydropyrimidin-5(2H)-ylidene)methyl)furan-2-yl)-2-hydroxybenzoic acid], the CC50 in series [3] was more than 300000 nM. In series [2], the pEC50 is 7.32 and the EC90 worked out at 10900 nM.

In series [4], `Nc1nc2c(ncn2COCCO)c(=O)[nH]1` [acyclovir, reference compound] gave a negative logarithm of the EC50 (pEC50) of 3.50.

In the case of (±)-α-tocopherol [reference compound], the “reduction of the peroxidation of linoleic acid” value in series [5] turned out to be 50.5%.
